Experiment: xn = mol fraction of the nth substance listed

CCCC[P+](CCCC)(CCCC)CCCC.F[B-](F)(F)F + C1CCOC1
298.15 K, 100 kPa
Settings | viscosity [mPa·s]
x1 = 0.0008214 | 0.468
x1 = 0.001232 | 0.473
x1 = 0.001649 | 0.478
x1 = 0.002058 | 0.483
x1 = 0.002474 | 0.489
x1 = 0.002883 | 0.495

CCCC[P+](CCCC)(CCCC)CCCC.F[B-](F)(F)F + C1CCOC1 + C1COCO1
298.15 K, 100 kPa
Settings | viscosity [mPa·s]
x1 = 0.0007279, x2 = 0.2549 | 0.563
x1 = 0.0007522, x2 = 0.5064 | 0.531
x1 = 0.0007834, x2 = 0.7544 | 0.499
x1 = 0.001095, x2 = 0.2548 | 0.569
x1 = 0.001131, x2 = 0.5062 | 0.537
x1 = 0.001182, x2 = 0.7541 | 0.505
x1 = 0.001455, x2 = 0.2547 | 0.575
x1 = 0.001511, x2 = 0.506 | 0.542
x1 = 0.001573, x2 = 0.7538 | 0.51
x1 = 0.001821, x2 = 0.2546 | 0.581
x1 = 0.001889, x2 = 0.5058 | 0.548
x1 = 0.001971, x2 = 0.7535 | 0.516
x1 = 0.00218, x2 = 0.2545 | 0.588
x1 = 0.002268, x2 = 0.5056 | 0.554
x1 = 0.002368, x2 = 0.7532 | 0.522
x1 = 0.002547, x2 = 0.2544 | 0.595
x1 = 0.002646, x2 = 0.5054 | 0.561
x1 = 0.002758, x2 = 0.7529 | 0.528

CCCC[P+](CCCC)(CCCC)CCCC.F[B-](F)(F)F + C1COCO1
298.15 K, 100 kPa
Settings | viscosity [mPa·s]
x1 = 0.0007033 | 0.595
x1 = 0.001051 | 0.6
x1 = 0.001406 | 0.606
x1 = 0.001753 | 0.613
x1 = 0.002107 | 0.62
x1 = 0.002453 | 0.627

CCCC[n+]1ccccc1.N#C[N-]C#N + CC1COC(=O)O1
101 kPa
Settings | electrical conductivity [S/m] | viscosity [mPa·s]
288.15 K, x1 = 0.1003 | 0.537 | 4.857
293.15 K, x1 = 0.4997 | 1.69 | 14.49
298.15 K, x1 = 0.3005 | 1.76 | 6.995
298.15 K, x1 = 0.7011 | 2.05 | 19.85
298.15 K, x1 = 0.7885 | 2.28 | 24.95
303.15 K, x1 = 0.3005 | 1.98 | 6.097
303.15 K, x1 = 0.6002 | 2.338 | 13.28
308.15 K, x1 = 0.1003 | 1.38 | 3.024
308.15 K, x1 = 0.3005 | 2.227 | 5.372
308.15 K, x1 = 0.7011 | 2.55 | 14.09
313.15 K, x1 = 0.1003 | 1.6 | 2.75
313.15 K, x1 = 0.3005 | 2.49 | 4.766
318.15 K, x1 = 0.1003 | 1.77 | 2.498
318.15 K, x1 = 0.7011 | 3.09 | 10.47
323.15 K, x1 = 0.197 | 2.44 | 3.04
323.15 K, x1 = 0.3005 | 3.038 | 3.842
323.15 K, x1 = 0.7011 | 3.432 | 9.16
323.15 K, x1 = 0.7885 | 3.732 | 10.85
328.15 K, x1 = 0.6002 | 3.724 | 6.707
328.15 K, x1 = 1 | 3.2 | 12.59
333.15 K, x1 = 0.197 | 2.94 | 2.58
333.15 K, x1 = 0.3005 | 3.66 | 3.172
333.15 K, x1 = 0.7011 | 4.16 | 7.185
333.15 K, x1 = 1 | 3.49 | 11.08
338.15 K, x1 = 0.197 | 3.17 | 2.394
343.15 K, x1 = 0.7011 | 4.98 | 5.796
343.15 K, x1 = 0.9008 | 5.122 | 7.641
348.15 K, x1 = 0.3005 | 4.732 | 2.474
348.15 K, x1 = 0.7011 | 5.416 | 5.253
353.15 K, x1 = 0.4003 | 5.33 | 2.965

CC[n+]1ccn(C)c1.N#C[S-] + CC1COC(=O)O1
101.3 kPa
Settings | electrical conductivity [S/m] | viscosity [mPa·s]
293.15 K, x1 = 0.2045 | 2.09 | 5.834
293.15 K, x1 = 0.2984 | 2.24 | 7.631
298.15 K, x1 = 0.0989 | 1.68 | 3.689
298.15 K, x1 = 0.4 | 2.36 | 8.466
298.15 K, x1 = 0.599 | 2.15 | 12.93
298.15 K, x1 = 0.7045 | 2.06 | 15.47
313.15 K, x1 = 0.7045 | 2.76 | 10.1
318.15 K, x1 = 0.2045 | 3.18 | 2.991
318.15 K, x1 = 0.2984 | 3.43 | 3.817
318.15 K, x1 = 0.599 | 3.12 | 7.316
318.15 K, x1 = 0.7045 | 3.02 | 8.83
318.15 K, x1 = 0.8942 | 2.77 | 11.64
323.15 K, x1 = 0.2045 | 3.45 | 2.665
323.15 K, x1 = 0.499 | 3.49 | 5.278
323.15 K, x1 = 0.599 | 3.4 | 6.4
328.15 K, x1 = 0.499 | 3.77 | 4.608
328.15 K, x1 = 0.599 | 3.68 | 5.614
328.15 K, x1 = 0.796 | 3.45 | 7.7
328.15 K, x1 = 0.8942 | 3.31 | 8.9
333.15 K, x1 = 0.0989 | 3.33 | 1.702
338.15 K, x1 = 0.0989 | 3.601 | –
338.18 K, x1 = 0.2984 | – | 2.283
343.15 K, x1 = 0.4 | 4.79 | 2.568
343.15 K, x1 = 0.499 | 4.66 | 3.183
343.15 K, x1 = 1 | 4.01 | 7.236
